The results in this text go back to ChEMBL document CHEMBL5346941, “Design, synthesis and evaluation of novel monoamine oxidase B (MAO-B) inhibitors with improved pharmacokinetic properties for Parkinson's disease” (Eur J Med Chem, 2023).

Activity calls are given as the source filed them. No cut-off for these calls is given here.

Series [1] is described as follows: Cmax in fasted Sprague-Dawley rat at 1 mg/kg, iv measured for 24 hrs. In kind it is ADME, organism-based. Set-up: dose 1 mg/kg, time 24 hrs, route iv. The following applies: Sprague-Dawley, in vivo, read-out: Cmax.
Series [2] is described as follows: Volume of distribution at steady state in fasted Sprague-Dawley rat at 1 mg/kg, iv measured for 24 hrs. As to conditions: in vivo, read-out: Vdss. In kind it is ADME, organism-based.
Series [3] is described as follows: AUC (0 to t) in fasted ICR mouse at 2 mg/kg, iv measured for 24 hrs. Format: ADME, organism-based. Set-up: dose 2 mg/kg, time 24 hrs, route iv. The following applies: in vivo.
The nature of series [4]: Volume of distribution at steady state in fasted ICR mouse at 2 mg/kg, iv measured for 24 hrs. Format: ADME, organism-based. As to conditions: in vivo, read-out: Vdss.
Series [5] in a line: Metabolic stability in rat liver microsomes assessed as half life at 1 uM incubated for 60 mins in presence of NADPH by LC-MS/MS analysis. Format: ADME, Microsome.
The nature of series [6]: Metabolic stability in monkey liver microsomes assessed as half life at 1 uM incubated for 60 mins in presence of NADPH by LC-MS/MS analysis. In kind it is ADME, Macaca mulatta, Microsome. As to conditions: rhesus monkey.
Series [7] can be described thus: Ratio of drug concentration in Sprague-Dawley brain to plasma at 5 mg/kg, ip measured after 15 mins by LC-MS/MS analysis. Format: ADME, organism-based. The following applies: rat, read-out: BPR.
Series [8] in a line: Ratio of drug concentration in Sprague-Dawley brain to plasma at 5 mg/kg, ip measured after 60 mins by LC-MS/MS analysis. Format: ADME, organism-based. The following applies: rat, read-out: BPR.
The next series addresses CYP3A4 (Homo sapiens, UniProt P08684). The series is described as follows: Inhibition of CYP3A4 in human liver microsomes using midazolam as substrate at 10 uM incubated for 5 mins in presence of NADPH by LC-MS/MS analysis relative to control. Format: ADME, Microsome. The following applies: probe midazolam.
Series [9] can be described thus: Apparent permeability across apical to basolateral side in MDCKII-MDR1 cells at 10 uM incubated for 30 mins by LC-MS/MS analysis. Format: ADME, cell-based, Canis lupus familiaris. As to conditions: dog, MDCK-MDR1.
Series [10] concerns Mus musculus. The series is described as follows: In vivo inhibition of MAO-B in ICR mouse assessed as reduction in enzyme activity in brain administered once intraperitoneally for 30 to 60 mins by amplex red based assay. In kind it is functional, organism-based. As to conditions: dose 0.08-1.28 mg/kg, route ip, time 30-60 min.
Series [11] can be described thus: In vivo inhibition of MAO-B in ICR mouse assessed as reduction in enzyme activity in brain by measuring fold change at 1.28 mg/kg, ip administered once for 30 to 60 mins by amplex red based assay relative to safinamide. In kind it is functional. The following applies: time 30-60 min.
The subject of series [12] is Mus musculus. The series is described as follows: Anti-parkinson activity in MPTP-induced dopamine deficit C57BL/6 mouse model assessed as increase in dopamine concentration in striatum at 3 to 10 mg/kg, ip pretreated with MPTP for 4 hrs followed by compound administration for 5 times once every 4 hrs further incubated with benserazide at 12.5 mg/kg for 30 mins prior to last dose and measured after 30 mins by HPLC analysis. Format: functional, organism-based. As to conditions: dose 3-10 mg/kg, time 16.5 hrs.

CYP3A4, sequence (P08684 whole entry): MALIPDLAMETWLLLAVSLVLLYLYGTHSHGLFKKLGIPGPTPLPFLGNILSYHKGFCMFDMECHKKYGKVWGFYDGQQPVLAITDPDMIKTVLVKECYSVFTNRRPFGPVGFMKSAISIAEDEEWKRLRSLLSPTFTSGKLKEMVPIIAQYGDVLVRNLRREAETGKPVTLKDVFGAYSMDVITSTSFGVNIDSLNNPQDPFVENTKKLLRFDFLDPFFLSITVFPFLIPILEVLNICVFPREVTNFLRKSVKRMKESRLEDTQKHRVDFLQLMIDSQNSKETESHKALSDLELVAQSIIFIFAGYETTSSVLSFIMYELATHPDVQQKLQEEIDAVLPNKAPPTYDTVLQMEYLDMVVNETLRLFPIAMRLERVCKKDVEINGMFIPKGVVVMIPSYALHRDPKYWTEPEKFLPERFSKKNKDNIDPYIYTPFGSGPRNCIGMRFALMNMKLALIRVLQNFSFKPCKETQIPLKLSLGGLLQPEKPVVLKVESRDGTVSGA

As for `NC(=O)[C@@H]1C[C@H](F)CN1Cc1ccc2oc(-c3ccc(F)cc3)cc2c1`, in series [1], the Cmax is 273 ng/mL. In addition, the Vd in series [2] came out at 3.33 L/kg; in series [4], 2.72 L/kg. This compound returned an AUC(0-t) at 24 h in series [3] of 2680 ng·h/mL. The half-life at 1 µM was 1.48 h in series [5] and 5.63 h in [6]. Further, in series [7], the Kp at 0.25 h was determined as 10.4. The Kp at 1 h in series [8] turned out to be 16.2. Moreover, the inhibition at 5 min, 10 µM at CYP3A4 is -45.2%. The Papp A→B at 0.5 h, 10 µM in [9] turned out to be 8.78 ×10⁻⁶ cm/s. In the series on Mus musculus [10], the inhibition result was “Active”. Besides, in series [11], the “fold change (FC)” value amounted to 5. In the series on Mus musculus [12], the outcome was Active.
